Data on 28 molecules can be found in ChEMBL document CHEMBL3779796, “One-pot synthesis and antimicrobial evaluation of novel 3-cyanopyridine derivatives of (-)-β-pinene” (2016).

≈ marks a conversion by molar mass, not a printed value. Some results are limits rather than exact numbers.

Common to all, as to assay type: functional
One experiment has as its system Candida albicans. The experiment is described as follows: Antimicrobial activity against Candida albicans after 48 hrs by serial two-fold microbroth dilution method. (In broth dilution the organism is exposed to a series of concentrations in liquid medium.)
In the next experiment the test system is Klebsiella aerogenes. The experiment is described as follows: Antimicrobial activity against Enterobacter aerogenes after 24 hrs by serial two-fold microbroth dilution method.
The next experiment relates to Klebsiella pneumoniae. The experiment is described as follows: Antimicrobial activity against Klebsiella pneumoniae after 24 hrs by serial two-fold microbroth dilution method.
The subject of another experiment is Staphylococcus aureus. Nature of the experiment: Antimicrobial activity against Staphylococcus aureus after 24 hrs by serial two-fold microbroth dilution method.
The test system of experiment [1] is Staphylococcus epidermidis. The experiment is described as follows: Antimicrobial activity against Staphylococcus epidermidis after 24 hrs by serial two-fold microbroth dilution method.

With `CC1(C)[C@H]2Cc3c(nc(O)c(C#N)c3-c3ccc(F)cc3)[C@@H]1C2`, the minimum inhibitory concentration (MIC) against Candida albicans was found to be 31.3 µg/mL (≈ 102 µM); in the experiment with Klebsiella aerogenes it was 62.5 µg/mL (≈ 203 µM); in the experiment with Klebsiella pneumoniae, 62.5 µg/mL (≈ 203 µM); in the experiment on Staphylococcus aureus, 31.3 µg/mL (≈ 102 µM); in experiment [1], 15.6 µg/mL (≈ 50.6 µM).
For the molecule `CC1(C)[C@H]2Cc3c(nc(O)c(C#N)c3-c3ccc(F)c(F)c3)[C@@H]1C2`, the MIC turned out to be 15.6 µg/mL (≈ 47.8 µM) in the experiment on Candida albicans; 62.5 µg/mL (≈ 192 µM) with Klebsiella aerogenes; 62.5 µg/mL (≈ 192 µM) with Klebsiella pneumoniae; 31.3 µg/mL (≈ 95.9 µM) with Staphylococcus aureus; 15.6 µg/mL (≈ 47.8 µM) in experiment [1].
For `CC1(C)[C@H]2Cc3c(nc(N)c(C#N)c3-c3ccc(F)c(F)c3)[C@@H]1C2`, the MIC was 31.3 µg/mL (≈ 96.2 µM) in the experiment on Candida albicans; 125 µg/mL (≈ 384 µM) with Klebsiella aerogenes; 125 µg/mL (≈ 384 µM) in the experiment on Klebsiella pneumoniae; > 125 µg/mL against Staphylococcus aureus; 125 µg/mL (≈ 384 µM) in experiment [1].
For the molecule `CC1(C)[C@H]2Cc3c(nc(O)c(C#N)c3-c3ccccc3Cl)[C@@H]1C2`, the MIC against Candida albicans amounted to 125 µg/mL (≈ 385 µM); in the experiment with Klebsiella aerogenes it was 62.5 µg/mL (≈ 192 µM); against Klebsiella pneumoniae, 125 µg/mL (≈ 385 µM); against Staphylococcus aureus, 125 µg/mL (≈ 385 µM); in experiment [1], 125 µg/mL (≈ 385 µM).
In the case of `CC1(C)[C@H]2Cc3c(nc(O)c(C#N)c3-c3ccc(Cl)cc3Cl)[C@@H]1C2`, the MIC amounted to 62.5 µg/mL (≈ 174 µM) in the experiment with Candida albicans; 62.5 µg/mL (≈ 174 µM) in the experiment with Klebsiella aerogenes; 125 µg/mL (≈ 348 µM) in the experiment on Klebsiella pneumoniae; 62.5 µg/mL (≈ 174 µM) in the experiment on Staphylococcus aureus; 31.3 µg/mL (≈ 87.1 µM) in experiment [1].
As for `CC1(C)[C@H]2Cc3c(nc(O)c(C#N)c3-c3ccc(Cl)cc3)[C@@H]1C2`, the MIC in the experiment with Candida albicans was found to be 31.3 µg/mL (≈ 96.4 µM); in the experiment with Klebsiella aerogenes it was 62.5 µg/mL (≈ 192 µM); against Klebsiella pneumoniae it was 62.5 µg/mL (≈ 192 µM); against Staphylococcus aureus it was 31.3 µg/mL (≈ 96.4 µM); in experiment [1], 31.3 µg/mL (≈ 96.4 µM).
On to `COc1ccc(-c2c(C#N)c(N)nc3c2C[C@H]2C[C@@H]3C2(C)C)cc1OC`, for which the MIC was 62.5 µg/mL (≈ 179 µM) with Candida albicans; > 125 µg/mL against Klebsiella aerogenes; > 125 µg/mL against Klebsiella pneumoniae; > 125 µg/mL in the experiment with Staphylococcus aureus; 125 µg/mL (≈ 358 µM) in experiment [1].
As for `CC1(C)[C@H]2Cc3c(nc(O)c(C#N)c3-c3ccc(C(F)(F)F)cc3)[C@@H]1C2`, the MIC against Candida albicans was 125 µg/mL (≈ 349 µM); in the experiment on Klebsiella aerogenes it was 125 µg/mL (≈ 349 µM); in the experiment on Klebsiella pneumoniae, > 125 µg/mL; against Staphylococcus aureus, 125 µg/mL (≈ 349 µM); in experiment [1], 125 µg/mL (≈ 349 µM).
Consider `COc1cccc(-c2c(C#N)c(N)nc3c2C[C@H]2C[C@@H]3C2(C)C)c1`, for which the MIC (in the experiment on Candida albicans; with Klebsiella aerogenes; in the experiment on Klebsiella pneumoniae; against Staphylococcus aureus; in experiment [1]) was 125 µg/mL (≈ 391 µM) throughout.
Consider `Cc1ccc(-c2c(C#N)c(N)nc3c2C[C@H]2C[C@@H]3C2(C)C)cc1`, for which the MIC is 125 µg/mL (≈ 412 µM) with Candida albicans; > 125 µg/mL against Klebsiella aerogenes; > 125 µg/mL with Klebsiella pneumoniae; > 125 µg/mL against Staphylococcus aureus; > 125 µg/mL in experiment [1].
`COc1ccccc1-c1c(C#N)c(O)nc2c1C[C@H]1C[C@@H]2C1(C)C`: the MIC against Candida albicans was found to be 62.5 µg/mL (≈ 195 µM); in the experiment with Klebsiella aerogenes, 125 µg/mL (≈ 390 µM); against Klebsiella pneumoniae it was 125 µg/mL (≈ 390 µM); against Staphylococcus aureus it was 125 µg/mL (≈ 390 µM); in experiment [1], 125 µg/mL (≈ 390 µM).
Consider `CC1(C)[C@H]2Cc3c(nc(N)c(C#N)c3-c3cccc(Br)c3)[C@@H]1C2`, for which the MIC against Candida albicans was 125 µg/mL (≈ 339 µM); in the experiment with Klebsiella aerogenes, 125 µg/mL (≈ 339 µM); against Klebsiella pneumoniae, 125 µg/mL (≈ 339 µM); with Staphylococcus aureus it was > 125 µg/mL; in experiment [1] it was 125 µg/mL (≈ 339 µM).
Take `COc1cccc(-c2c(C#N)c(O)nc3c2C[C@H]2C[C@@H]3C2(C)C)c1`: the MIC against Candida albicans came out at 125 µg/mL (≈ 390 µM); in the experiment with Klebsiella aerogenes, 125 µg/mL (≈ 390 µM); against Klebsiella pneumoniae it was 125 µg/mL (≈ 390 µM); in the experiment with Staphylococcus aureus it was 62.5 µg/mL (≈ 195 µM); in experiment [1], 62.5 µg/mL (≈ 195 µM).
Consider `CC1(C)[C@H]2Cc3c(nc(N)c(C#N)c3-c3ccccc3Cl)[C@@H]1C2`, for which the MIC (with Candida albicans; against Klebsiella aerogenes; against Klebsiella pneumoniae; with Staphylococcus aureus; in experiment [1]) was 125 µg/mL (≈ 386 µM) each time.
Regarding `COc1ccccc1-c1c(C#N)c(N)nc2c1C[C@H]1C[C@@H]2C1(C)C`, the MIC in the experiment on Candida albicans was 125 µg/mL (≈ 391 µM); in the experiment on Klebsiella aerogenes, > 125 µg/mL; with Klebsiella pneumoniae it was > 125 µg/mL; in the experiment with Staphylococcus aureus, > 125 µg/mL; in experiment [1], 125 µg/mL (≈ 391 µM).
As for `CC1(C)[C@H]2Cc3c(nc(O)c(C#N)c3-c3cccc(O)c3)[C@@H]1C2`, the MIC in the experiment with Candida albicans worked out at 62.5 µg/mL (≈ 204 µM); with Klebsiella aerogenes, 62.5 µg/mL (≈ 204 µM); against Klebsiella pneumoniae it was 62.5 µg/mL (≈ 204 µM); against Staphylococcus aureus, 62.5 µg/mL (≈ 204 µM); in experiment [1], 31.3 µg/mL (≈ 102 µM).
Consider `Cc1ccc(-c2c(C#N)c(O)nc3c2C[C@H]2C[C@@H]3C2(C)C)cc1`, for which the MIC was 125 µg/mL (≈ 411 µM) in the experiment on Candida albicans; > 125 µg/mL in the experiment on Klebsiella aerogenes; > 125 µg/mL with Klebsiella pneumoniae; 125 µg/mL (≈ 411 µM) against Staphylococcus aureus; 125 µg/mL (≈ 411 µM) in experiment [1].
For `CC1(C)[C@H]2Cc3c(nc(N)c(C#N)c3-c3ccc(Cl)cc3)[C@@H]1C2`, the MIC against Candida albicans worked out at 62.5 µg/mL (≈ 193 µM); in the experiment on Klebsiella aerogenes it was 125 µg/mL (≈ 386 µM); with Klebsiella pneumoniae, 125 µg/mL (≈ 386 µM); with Staphylococcus aureus it was 125 µg/mL (≈ 386 µM); in experiment [1] it was 125 µg/mL (≈ 386 µM).
With `CC1(C)[C@H]2Cc3c(nc(O)c(C#N)c3-c3ccccc3)[C@@H]1C2`, the MIC with Candida albicans was 125 µg/mL (≈ 430 µM); in the experiment on Klebsiella aerogenes, > 125 µg/mL; in the experiment on Klebsiella pneumoniae it was > 125 µg/mL; in the experiment on Staphylococcus aureus it was 125 µg/mL (≈ 430 µM); in experiment [1], 125 µg/mL (≈ 430 µM).
Take `CC1(C)[C@H]2Cc3c(nc(N)c(C#N)c3-c3ccc(F)cc3)[C@@H]1C2`: the MIC was 62.5 µg/mL (≈ 203 µM) against Candida albicans; 125 µg/mL (≈ 407 µM) with Klebsiella aerogenes; 125 µg/mL (≈ 407 µM) against Klebsiella pneumoniae; > 125 µg/mL with Staphylococcus aureus; 125 µg/mL (≈ 407 µM) in experiment [1].
Take `CC1(C)[C@H]2Cc3c(nc(N)c(C#N)c3-c3ccc(Br)cc3)[C@@H]1C2`: the MIC came out at 62.5 µg/mL (≈ 170 µM) with Candida albicans; 125 µg/mL (≈ 339 µM) in the experiment with Klebsiella aerogenes; 125 µg/mL (≈ 339 µM) against Klebsiella pneumoniae; 125 µg/mL (≈ 339 µM) against Staphylococcus aureus; 125 µg/mL (≈ 339 µM) in experiment [1].
For the molecule `CC1(C)[C@H]2Cc3c(nc(N)c(C#N)c3-c3cccc(O)c3)[C@@H]1C2`, the MIC in the experiment on Candida albicans is 125 µg/mL (≈ 409 µM); against Klebsiella aerogenes it was 125 µg/mL (≈ 409 µM); in the experiment on Klebsiella pneumoniae it was 125 µg/mL (≈ 409 µM); against Staphylococcus aureus it was > 125 µg/mL; in experiment [1], 125 µg/mL (≈ 409 µM).
`CC1(C)[C@H]2Cc3c(nc(O)c(C#N)c3-c3cccc(Br)c3)[C@@H]1C2`: the MIC in the experiment with Candida albicans is 31.3 µg/mL (≈ 84.8 µM); with Klebsiella aerogenes, 62.5 µg/mL (≈ 169 µM); with Klebsiella pneumoniae, 62.5 µg/mL (≈ 169 µM); in the experiment with Staphylococcus aureus, 62.5 µg/mL (≈ 169 µM); in experiment [1] it was 31.3 µg/mL (≈ 84.8 µM).
In the case of `CC1(C)[C@H]2Cc3c(nc(N)c(C#N)c3-c3ccccc3)[C@@H]1C2`, the MIC in the experiment with Candida albicans is 125 µg/mL (≈ 432 µM); against Klebsiella aerogenes, > 125 µg/mL; in the experiment on Klebsiella pneumoniae it was > 125 µg/mL; against Staphylococcus aureus it was > 125 µg/mL; in experiment [1], 125 µg/mL (≈ 432 µM).
In the case of `CC1(C)[C@H]2Cc3c(nc(O)c(C#N)c3-c3ccc(Br)cc3)[C@@H]1C2`, the MIC worked out at 31.3 µg/mL (≈ 84.8 µM) against Candida albicans; 125 µg/mL (≈ 339 µM) against Klebsiella aerogenes; 62.5 µg/mL (≈ 169 µM) in the experiment with Klebsiella pneumoniae; 62.5 µg/mL (≈ 169 µM) against Staphylococcus aureus; 62.5 µg/mL (≈ 169 µM) in experiment [1].
For `CC1(C)[C@H]2CCC(=O)[C@@H]1C2`, the MIC (in the experiment on Candida albicans; in the experiment on Klebsiella aerogenes; with Klebsiella pneumoniae; in the experiment with Staphylococcus aureus; in experiment [1]) was > 125 µg/mL in each case.
`NC[C@H]1O[C@H](O[C@H]2[C@H](O)[C@@H](O[C@H]3O[C@H](CO)[C@@H](O)[C@H](N)[C@H]3O)[C@H](N)C[C@@H]2N)[C@H](O)[C@@H](O)[C@@H]1O` [KANAMYCIN]: the minimal inhibitory concentration (MIC) with Klebsiella aerogenes came to 3.9 µg/mL (≈ 8.05 µM); in the experiment on Klebsiella pneumoniae, 2 µg/mL (≈ 4.13 µM); with Staphylococcus aureus it was 2 µg/mL (≈ 4.13 µM); in experiment [1], 3.9 µg/mL (≈ 8.05 µM).
With `CO[C@H]1/C=C/O[C@@]2(C)Oc3c(C)c(O)c4c(O)c(c(/C=N/N5CCN(C)CC5)c(O)c4c3C2=O)NC(=O)/C(C)=C\C=C\[C@H](C)[C@H](O)[C@@H](C)[C@@H](O)[C@@H](C)[C@H](OC(C)=O)[C@@H]1C` [RIFAMPIN], the MIC in the experiment with Candida albicans came to 3.9 µg/mL (≈ 4.74 µM).

Usually MIC stands for the least concentration at which growth counts as inhibited.
